The results in this text go back to ChEMBL document CHEMBL1158244, “A new norcembranoid dimer from the red sea soft coral Sinularia gardineri” (1996).

What all share (type): functional
One assay has as its system Candida albicans. The assay can be described thus: Antifungal activity against Candida albicans B311 at 1 mg/mL. The following applies: read-out: IZ.
The next assay concerns Cryptococcus neoformans. The assay can be described thus: Antifungal activity against Cryptococcus neoformans at 1 mg/mL. Particulars: read-out: IZ.
Another assay relates to A549. The assay can be described thus: Cytotoxicity against human A549 cells.
A further assay concerns P388. The assay can be described thus: Cytotoxicity against mouse P388 cells.
The next assay concerns HT-29. The assay can be described thus: Cytotoxicity against human HT29 cells.
The subject of the next assay is SK-MEL-28. The assay can be described thus: Cytotoxicity against human SK-MEL-28 cells.

On to `C[C@@H]1[C@H](O)[C@@H](C)/C=C/C=C/C=C/C=C/C=C/C=C/C=C/[C@H](O[C@@H]2O[C@H](C)[C@@H](O)[C@H](N)[C@@H]2O)C[C@@H]2O[C@](O)(C[C@@H](O)C[C@@H](O)[C@H](O)CC[C@@H](O)C[C@@H](O)CC(=O)O[C@H]1C)C[C@H](O)[C@H]2C(=O)O` [AMPHOTERICIN B], for which the zone of inhibition at 1000 µg/mL amounted to 12 mm in the assay with Candida albicans and 10 mm in the assay on Cryptococcus neoformans.

Turning to `CC(C)C1=C[C@@H]2[C@H](CC[C@@]2(C)O)[C@@](C)(O)CC1` [GUAIANEDIOL], the Activity was determined as 2.5 µg/mL with A549, 1 µg/mL with P388, 5 µg/mL in the assay with HT-29 and 5 µg/mL with SK-MEL-28.

Regarding `C=C(C)[C@H]1CC[C@@]23O[C@@H]2[C@@H](C[C@@]2(C)CC(=O)[C@H](CC(=O)C1)O2)OC(=O)[C@@]12CC[C@H](C(=C)C)CC(=O)C[C@H]4O[C@](C)(CC4=O)C[C@@H](OC3=O)[C@@H]1O2` [SINGARDIN], the Activity with A549 turned out to be 2.5 µg/mL; with P388 it was 1 µg/mL; with HT-29, 5 µg/mL; in the assay on SK-MEL-28, 5 µg/mL. Besides, the zone of inhibition at 1000 µg/mL in the assay on Candida albicans and in the assay on Cryptococcus neoformans was 3 mm throughout.
